According to patent US20030215462A1, “Use of UGT inhibitors to increase bioavailability” (priority 2001, published 2003):

Legend:
UGT1A10 [1] = molecular target: T1, UGT1A10 (Homo sapiens, UniProt Q9HAW8); assay: Inhibition of raloxifene glucuronidation by recombinant UGT1A10 Bacculosomes
T1 sequence (Q9HAW8 26-530): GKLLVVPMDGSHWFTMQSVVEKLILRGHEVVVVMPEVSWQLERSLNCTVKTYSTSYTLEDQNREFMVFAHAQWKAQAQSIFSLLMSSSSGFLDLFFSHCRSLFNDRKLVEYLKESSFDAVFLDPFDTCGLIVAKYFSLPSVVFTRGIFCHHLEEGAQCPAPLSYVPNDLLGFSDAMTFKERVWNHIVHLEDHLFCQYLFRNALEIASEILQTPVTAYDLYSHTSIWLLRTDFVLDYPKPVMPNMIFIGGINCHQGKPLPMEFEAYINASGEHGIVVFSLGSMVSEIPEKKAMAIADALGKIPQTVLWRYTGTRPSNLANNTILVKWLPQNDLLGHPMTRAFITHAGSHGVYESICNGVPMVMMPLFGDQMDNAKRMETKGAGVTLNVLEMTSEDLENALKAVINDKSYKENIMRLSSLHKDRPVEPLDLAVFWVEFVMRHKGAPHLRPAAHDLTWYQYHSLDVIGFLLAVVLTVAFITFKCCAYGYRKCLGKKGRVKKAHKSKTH
Protocol: (§2) Compounds were eluted using a binary solvent gradient system. Solvent A was water brought to pH 8 with NH4OH. Solvent B was methanol. Solvent flow rate was 1 ml/min and the column temperature was maintained at 50° C. Detection was at 280 nm. […] The system was then returned to the initial conditions and equilibrated for 3 min.

UGT1A1 [2] = molecular target: T2, UGT1A1 (Homo sapiens, UniProt P22309); assay: Inhibition of raloxifene glucuronidation by recombinant UGT1A1 Supersomes; conditions: UGT1A1
T2 sequence (P22309 26-533): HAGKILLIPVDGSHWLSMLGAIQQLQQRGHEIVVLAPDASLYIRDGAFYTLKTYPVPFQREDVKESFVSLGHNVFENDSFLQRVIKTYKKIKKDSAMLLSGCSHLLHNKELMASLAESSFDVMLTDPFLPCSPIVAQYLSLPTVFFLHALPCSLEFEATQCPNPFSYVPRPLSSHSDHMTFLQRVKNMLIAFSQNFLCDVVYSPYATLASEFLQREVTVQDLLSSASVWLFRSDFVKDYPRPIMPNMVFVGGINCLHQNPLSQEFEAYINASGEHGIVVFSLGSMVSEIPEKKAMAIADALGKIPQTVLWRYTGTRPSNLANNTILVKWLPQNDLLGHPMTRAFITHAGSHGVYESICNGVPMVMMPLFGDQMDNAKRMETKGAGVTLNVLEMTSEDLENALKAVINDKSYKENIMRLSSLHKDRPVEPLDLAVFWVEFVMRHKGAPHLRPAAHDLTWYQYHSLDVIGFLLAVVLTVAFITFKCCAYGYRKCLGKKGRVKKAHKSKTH
Protocol: as §2

UGT1A10 [3] = molecular target: T1, UGT1A10; assay: in vitro; conditions: pH 7.5, % of control metabolism
Protocol: as §2

[4] = system: UGT enzymes of pooled human jejunum microsomes; assay: Inhibition of zidovudine glucuronidation in pooled human jejunum microsomes; format: biochemical; conditions: inhibitor 200 μM
Protocol: Increasing the microsomal protein concentration to 1 mg/ml and extending the incubation time to 60 min provided meaningful metabolite levels for inhibition studies.

UGT1A1 [5] = molecular target: T2, UGT1A1; assay: in vitro
Protocol: as §2

[6] = system: T3, UGT enzymes of human liver microsomes; assay: Kinetic and Ki studies of inhibitors of 7-HFC glucuronidation in human liver microsomes; format: biochemical; conditions: 7-HFC 20-500 μM
T3 construct: percentage of control metabolism, 7-HFC glucuronidation; percentage of control metabolism, 7-HFC glucuronidation

[7] = system: UGT enzymes of human liver microsomes; assay: Inhibition of raloxifene glucuronidation (G1, G2) in human liver microsomes; format: biochemical; conditions: raloxifene 50 μM; for % of control metabolism (SD, n = 3), raloxifene glucuronide G1 / % of control metabolism (SD, n = 3), raloxifene glucuronide G2: human liver microsomes 250 μg/ml, 15 min
Excerpt: Compounds were eluted using a binary solvent gradient system. […] Solvent B was methanol. […] Detection was at 280 nm.

UGT1A3 = molecular target: T4, UGT1A3 (Homo sapiens, UniProt P35503); assay: in vitro
T4 sequence (P35503 29-534): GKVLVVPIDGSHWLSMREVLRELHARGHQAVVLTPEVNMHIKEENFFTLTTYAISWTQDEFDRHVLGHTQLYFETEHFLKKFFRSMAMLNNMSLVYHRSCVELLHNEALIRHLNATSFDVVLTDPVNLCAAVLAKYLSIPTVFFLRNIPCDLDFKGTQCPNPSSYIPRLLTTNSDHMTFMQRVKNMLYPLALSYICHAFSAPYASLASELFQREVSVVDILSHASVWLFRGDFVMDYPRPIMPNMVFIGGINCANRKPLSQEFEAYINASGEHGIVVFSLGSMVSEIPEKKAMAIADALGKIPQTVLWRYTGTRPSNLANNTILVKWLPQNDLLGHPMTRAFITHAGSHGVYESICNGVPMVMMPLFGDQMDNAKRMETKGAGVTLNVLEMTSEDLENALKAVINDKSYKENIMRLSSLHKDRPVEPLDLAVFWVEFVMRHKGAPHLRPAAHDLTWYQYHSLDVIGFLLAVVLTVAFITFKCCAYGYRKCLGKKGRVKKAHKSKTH
Protocol: as §2

[8] = system: UGT enzymes of pooled human jejunum microsomes; assay: Inhibition of 2ME2 glucuronidation (MG1) in pooled human jejunum microsomes; format: biochemical; conditions: jejunum HJ61, 2ME2 50 μM
Excerpt: (§1) Compounds were eluted using a binary solvent gradient system where solvent A was dilute phosphoric acid (pH 3) and solvent B was 80:20 acetonitrile-methanol. […] Detection was at 280 nm.

[9] = system: T5, UGT enzymes of human liver microsomes; assay: Inhibition of 2ME2 glucuronidation (MG1, MG2) in human liver microsomes; format: biochemical; conditions: liver 062101, 2ME2 50 μM
T5 construct: other: liver 062101
Excerpt: as §1

UGT1A9 = molecular target: T6, UGT1A9 (Homo sapiens, UniProt O60656); assay: in vitro; conditions: pH 7.5, % of control metabolism
T6 sequence (O60656 26-530): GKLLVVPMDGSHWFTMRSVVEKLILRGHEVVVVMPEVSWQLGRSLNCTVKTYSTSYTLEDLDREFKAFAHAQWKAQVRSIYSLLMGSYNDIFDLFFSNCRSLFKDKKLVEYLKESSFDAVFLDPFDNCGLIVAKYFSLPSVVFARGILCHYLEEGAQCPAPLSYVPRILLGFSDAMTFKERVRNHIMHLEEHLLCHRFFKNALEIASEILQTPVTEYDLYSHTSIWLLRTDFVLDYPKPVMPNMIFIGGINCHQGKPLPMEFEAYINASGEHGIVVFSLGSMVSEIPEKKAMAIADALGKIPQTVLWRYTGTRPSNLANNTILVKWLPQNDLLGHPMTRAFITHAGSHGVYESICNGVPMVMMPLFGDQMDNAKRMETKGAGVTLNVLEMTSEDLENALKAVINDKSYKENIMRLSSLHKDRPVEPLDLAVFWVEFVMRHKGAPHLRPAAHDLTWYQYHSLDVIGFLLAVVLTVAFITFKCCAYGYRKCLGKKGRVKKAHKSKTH
Protocol: as §2

[10] = cited from earlier work
[11] = system: T3, UGT enzymes of human liver microsomes; assay: Inhibition of 7-HFC glucuronidation in human liver microsomes; format: biochemical; conditions: inhibitor 500 μM; 7-HFC 50 μM, human liver microsomes 100 μg/ml, 15 min
[12] = pH 7.5, % of control metabolism, raloxifene G1
[13] = pH 7.5, % of control metabolism, raloxifene G2

## O=C(O)Cc1ccccc1Nc1c(Cl)cccc1Cl [Diclofenac, reference compound]
UGT1A10 [1]
  inhibition of raloxifene glucuronidation, in words: poor inhibitors
UGT1A1 [2]
  inhibition of raloxifene glucuronidation, in words: poor inhibitors
UGT1A10 [3]; raloxifene G1
  activity at 15 min, 50 µM: 97%
UGT1A10 [3]; raloxifene G2
  activity at 15 min, 50 µM: 93%
[4]
  residual metabolism (percentage of control), zidovudine: 18 (2) %
UGT1A1 [5]; [12]
  activity at 15 min, 50 µM: 66%
UGT1A1 [5]; [13]
  activity at 15 min, 50 µM: 73%
UGT1A1 [5]; pH 7.5, Inhibition of raloxifene glucuronidation, G1, UGT1A1
  activity at 15 min, 50 µM: 66%
UGT1A1 [5]; pH 7.5, Inhibition of raloxifene glucuronidation, G2, UGT1A1
  activity at 15 min, 50 µM: 73%
[6]
  Vmax of 7-HFC glucuronidation (fit of the experiment with this inhibitor): 64 ± 4 nmol/min/mg
[6]; read-out: Km of 7-HFC glucuronidation (fit of the experiment with this inhibitor)
  Km: 87 ± 7 µM
[7]; inhibitor 50 μM
  % of control metabolism (SD, n = 3), raloxifene glucuronide G1: 65 (1) %
  % of control metabolism (SD, n = 3), raloxifene glucuronide G2: 67 (1) %
  % of control metabolism, raloxifene G1: 65 (1) %
  % of control metabolism, raloxifene G2: 67 (1) %
[7]; inhibitor 100 μM
  % of control metabolism (SD, n = 3), raloxifene glucuronide G1: 50 (3) %
  % of control metabolism (SD, n = 3), raloxifene glucuronide G2: 53 (3) %
  % of control metabolism, raloxifene G1: 50 (3) %
  % of control metabolism, raloxifene G2: 53 (3) %
[7]; inhibitor 500 μM
  % of control metabolism (SD, n = 3), raloxifene glucuronide G1: 6 (1) %
  % of control metabolism (SD, n = 3), raloxifene glucuronide G2: 6 (1) %
UGT1A3; [12]
  activity at 15 min, 50 µM: 74%
UGT1A3; [13]
  activity at 15 min, 50 µM: 75%
UGT1A3; pH 7.5, Inhibition of raloxifene glucuronidation, G1, UGT1A3
  activity at 15 min, 50 µM: 74%
UGT1A3; pH 7.5, Inhibition of raloxifene glucuronidation, G2, UGT1A3
  activity at 15 min, 50 µM: 75%
[8]; inhibitor 50 μM
  residual metabolism (% of control), 2ME2 MG1: 100 (3) %
[8]; inhibitor 100 μM
  residual metabolism (% of control), 2ME2 MG1: 97 (4) %
[9]; inhibitor 50 μM
  residual metabolism (% of control), 2ME2 MG1: 70 (1) %
  residual metabolism (% of control), 2ME2 MG2: 60 (1) %
[9]; inhibitor 100 μM
  residual metabolism (% of control), 2ME2 MG1: 54 (1) %
  residual metabolism (% of control), 2ME2 MG2: 44 (3) %
UGT1A9; raloxifene G1
  activity at 15 min, 50 µM: 74%
UGT1A9; raloxifene G2
  activity at 15 min, 50 µM: 77%

## CCCN(CCC)S(=O)(=O)c1ccc(C(=O)O)cc1 [Probenecid, reference compound]
[10]; AIDS patients and healthy volunteers
  increase in zidovudine levels on co-administration: 2 fold
[10]; coadministration with diflunisal
  reduction in diflunisal metabolism to acyl- and phenol-glucuronides: 50%
[11]
  % of control metabolism (SD, n = 3), 7-HFC glucuronidation: 91 (1) %
[7]; inhibitor 500 μM
  % of control metabolism (SD, n = 3), raloxifene glucuronide G1: 70 (4) %
  % of control metabolism (SD, n = 3), raloxifene glucuronide G2: 70 (1) %
